The values that follow come from patent publication US20250082665A1, “EYE DROP FORMULATIONS IN THE FORM OF AN AQUEOUS SOLUTION COMPRISING 8-OXO-2'-DEOXYGUANOSINE OR A PHARMACEUTICALLY ACCEPTABLE SALT THEREOF” (RUDACURE CORPORATION, priority 2023, published 2025).

One data set deals with corneal injuries. The conditions noted are these: cited from earlier work.
Data set [1] is described as follows: water solubility / solubilization of the compound of Formula 1. Type of data set: physicochemical.

A word on the solubility: it is the dissolved amount per volume that the medium holds. A higher solubility goes with much dissolved substance. Consider `Nc1nc2c(nc(O)n2[C@H]2C[C@H](O)[C@@H](CO)O2)c(=O)[nH]1` [compound of Formula 1, 8-oxo-2′-deoxyguanosine], for which the corneal epithelial restoration entry in the data set on corneal injuries is reported as “rapid corneal epithelial restoration”. Further, the “behaviour of aqueous solution obtained by heating when stored at room temperature” value in data set [1] (solubilized by heating, stored at room temperature) is listed as “precipitates”. Moreover, in data set [1] (water, room temperature (about 25° C.)), the solubility turned out to be 1910 µg/mL.
